Experiments:
melatonin MT1 receptor = biological target: T1, melatonin MT1 receptor (Homo sapiens, UniProt P48039); assay: Fluo-8 calcium flux agonist assay in HEK293 cells stably expressing human MT1, single concentration […]; type: cell-based; details: read-out: % agonistic rate at 0.5 mM
T1 construct: gene MTNR1A

melatonin MT2 receptor = biological target: T2, melatonin MT2 receptor (Homo sapiens, UniProt P49286); assay: Fluo-8 calcium flux agonist assay in HEK293 cells stably expressing human MT2, dose-response; type: cell-based
T2 construct: gene MTNR1B
T2 sequence (P49286 1-362): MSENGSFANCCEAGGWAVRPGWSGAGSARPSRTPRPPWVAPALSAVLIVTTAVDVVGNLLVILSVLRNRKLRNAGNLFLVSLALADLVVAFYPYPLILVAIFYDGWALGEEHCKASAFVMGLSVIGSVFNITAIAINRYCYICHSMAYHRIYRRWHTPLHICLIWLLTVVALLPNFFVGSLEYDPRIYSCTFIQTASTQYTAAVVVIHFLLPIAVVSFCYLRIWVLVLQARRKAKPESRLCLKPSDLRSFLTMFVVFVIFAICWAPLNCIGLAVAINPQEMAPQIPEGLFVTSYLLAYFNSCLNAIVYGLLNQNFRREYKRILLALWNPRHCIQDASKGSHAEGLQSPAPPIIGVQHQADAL

T1 sequence (P48039 whole entry): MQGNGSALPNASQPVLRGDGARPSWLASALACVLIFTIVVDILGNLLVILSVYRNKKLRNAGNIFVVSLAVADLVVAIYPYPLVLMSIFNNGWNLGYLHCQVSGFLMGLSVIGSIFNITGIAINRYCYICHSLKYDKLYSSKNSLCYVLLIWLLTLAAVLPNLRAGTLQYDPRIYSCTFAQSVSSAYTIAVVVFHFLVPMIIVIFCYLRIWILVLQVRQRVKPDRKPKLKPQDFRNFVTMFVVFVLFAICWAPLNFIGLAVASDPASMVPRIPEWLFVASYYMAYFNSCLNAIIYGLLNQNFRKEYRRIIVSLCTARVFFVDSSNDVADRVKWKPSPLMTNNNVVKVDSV

SMILES: Oc1ccc(Cc2ccc(O)c(Cc3cc(Cc4ccc(O)cc4)c(O)c(Cc4ccc(O)cc4)c3)c2)cc1 [compound 1, gastropolybenzylol G]
- activation at 500 µM (melatonin MT1 receptor): 55.9 ± 4.84%
- EC50 (melatonin MT2 receptor): 76.2 µM
